Experimental findings from article PMC10170656 (RSC Chemical Biology, 2023) are described below.

“Also recorded” adds a separate entry of the source. A value given as a limit tells only on which side of the number the result lay.

Series [1] in a line: Survival curve and cytotoxicity in HCT116 cells. In kind it is cell-based. The note with it: human, HCT116 cells (colon cancer cell line).
For another series, the target named is TDP1 (Homo sapiens, UniProt Q9NUW8). Kind of series: biochemical. Particulars: TDP1 IC50, Table 2: triazole, ether and phthalic acid isostere derivatives.
For another series, the target named is T1, TDP2 (Homo sapiens, UniProt O95551).
T1 sequence (O95551 1-362): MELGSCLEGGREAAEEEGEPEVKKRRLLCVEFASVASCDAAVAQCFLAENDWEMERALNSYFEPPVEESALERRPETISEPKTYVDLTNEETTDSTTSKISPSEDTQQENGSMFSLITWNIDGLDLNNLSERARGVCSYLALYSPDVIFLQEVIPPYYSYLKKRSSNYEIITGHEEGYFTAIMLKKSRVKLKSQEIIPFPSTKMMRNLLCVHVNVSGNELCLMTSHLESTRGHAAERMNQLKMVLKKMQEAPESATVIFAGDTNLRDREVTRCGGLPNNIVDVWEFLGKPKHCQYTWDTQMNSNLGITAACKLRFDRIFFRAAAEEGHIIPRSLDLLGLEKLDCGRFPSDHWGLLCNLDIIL
The format is biochemical.

In a further series the test system is HCT116 cells. Kind of series: Synergistic effect of TDP1 inhibitors with camptothecin. In kind it is cell-based, human. The note with it: concentrations below CC50, 72 h.

Sequence of TDP1 (Q9NUW8 whole entry): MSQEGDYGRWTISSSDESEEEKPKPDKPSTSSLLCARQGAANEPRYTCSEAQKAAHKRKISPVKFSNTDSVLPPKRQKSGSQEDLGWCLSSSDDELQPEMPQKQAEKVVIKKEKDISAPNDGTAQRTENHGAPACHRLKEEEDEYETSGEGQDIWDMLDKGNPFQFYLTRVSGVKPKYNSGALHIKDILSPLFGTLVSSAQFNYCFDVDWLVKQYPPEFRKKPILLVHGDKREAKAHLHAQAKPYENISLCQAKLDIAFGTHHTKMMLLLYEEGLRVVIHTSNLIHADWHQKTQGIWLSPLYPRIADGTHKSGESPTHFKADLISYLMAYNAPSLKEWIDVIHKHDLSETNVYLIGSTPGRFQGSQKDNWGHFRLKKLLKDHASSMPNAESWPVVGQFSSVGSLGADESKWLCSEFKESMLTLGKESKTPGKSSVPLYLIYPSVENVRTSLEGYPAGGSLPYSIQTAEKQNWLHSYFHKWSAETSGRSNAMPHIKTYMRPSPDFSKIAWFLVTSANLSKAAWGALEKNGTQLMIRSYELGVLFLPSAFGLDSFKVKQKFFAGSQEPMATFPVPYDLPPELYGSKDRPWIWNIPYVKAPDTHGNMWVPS

`N#Cc1ccc(-c2ccc(Cn3cc(-c4ccc(-c5nc6cc(-c7ccccc7)ccn6c5Nc5ccc(C(=O)O)cc5)cc4)nn3)cc2)nc1` [Compound 7d] displayed a CC50 at 72 h in series [1] of 136 µM. This compound registered an IC50 on TDP1 of 3.3 ± 0.2 µM. Further, at TDP2, the “inhibitory potency against TDP1 relative to TDP2” value stood at 8 fold. Besides, the “synergy with the TOP1 inhibitor CPT” value in the series on HCT116 cells is given as “act synergistically; also recorded: synergize”.
On TDP1, `O=C(O)c1ccc(Nc2c(-c3ccccc3)nc3cc(-c4ccccc4)ccn23)cc1C(=O)O` [Compound 9a, 4-((2,7-diphenylimidazo[1,2-a]pyridin-3-yl)amino)phthalic acid] displayed an IC50 of more than 100 µM.
`O=C(O)c1ccc(Nc2c(-c3ccc(CCOCc4ccc(-c5ccccc5)cc4)cc3)nc3cc(-c4ccccc4)ccn23)cc1C(=O)O` [Compound 9b, 4-((2-(4-(2-([1,1'-biphenyl]-4-ylmethoxy)ethyl)phenyl)-7-phenylimidazo[1,2-a]pyridin-3-yl)amino)phthalic acid]: the IC50 on TDP1 amounted to 11.3 ± 1.93 µM.
Consider `O=C(O)c1ccc(Nc2c(-c3ccc(CCOCc4ccc(-c5ccccn5)cc4)cc3)nc3cc(-c4ccccc4)ccn23)cc1C(=O)O` [Compound 9c, 4-((7-phenyl-2-(4-(2-((4-(pyridin-2-yl)benzyl)oxy)ethyl)phenyl)imidazo[1,2-a]pyridin-3-yl)amino)phthalic acid], for which 19.8 ± 1.35 µM corresponded to half-maximal inhibition at TDP1 (IC50).

By CC50 is commonly meant the concentration that lowers cell viability or growth by half. A higher CC50 goes with lower toxicity to the cells. As a reminder, the IC50 is the concentration that gives 50% inhibition. Low values mean inhibition by little substance, high ones a need for much substance.
